What was measured:
Assay in all cases: relative viability (nuclei count vs DMSO), 5 days (fraction); higher = more cells survive
Decitabine + Tozasertib = compound: Nc1ncn([C@H]2C[C@H](O)[C@@H](CO)O2)c(=O)n1 [Decitabine] + Cc1cc(Nc2cc(N3CCN(C)CC3)nc(Sc3ccc(NC(=O)C4CC4)cc3)n2)n[nH]1 [Tozasertib] (partner 0.1 µM)
In short: (§1)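 Dosing by pin tool came one day after lung cancer cell lines were seeded in 1536-well plates, using either one drug or a fixed anchor-drug dose plus five library-drug doses (not always all listed) in √10 steps. After 5 days, nuclei were counted on 4× images. Relative viability is treated-well nuclei count divided by vehicle-well nuclei count, and values are medians of duplicate plates.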

[1] = compound: O=C(C[C@H]1NCCC[C@@H]1O)Cn1cnc2cc(Br)c(Cl)cc2c1=O (racemic) [Halofuginone] + CC(=O)Nc1cccc(-n2c(=O)n(C3CC3)c(=O)c3c(Nc4ccc(I)cc4F)n(C)c(=O)c(C)c32)c1 [Trametinib] (partner 0.02 µM)
In short: as §1

[2] = compound: O=C(C[C@H]1NCCC[C@@H]1O)Cn1cnc2cc(Br)c(Cl)cc2c1=O (racemic) [Halofuginone] + CC1(C)CCC(c2ccc(Cl)cc2)=C(CN2CCN(c3ccc(C(=O)NS(=O)(=O)c4ccc(N[C@H](CCN5CCOCC5)CSc5ccccc5)c(S(=O)(=O)C(F)(F)F)c4)cc3)CC2)C1 [Navitoclax] (partner 0.5 µM)
In short: as §1

Halofuginone + Alpelisib = compound: O=C(C[C@H]1NCCC[C@@H]1O)Cn1cnc2cc(Br)c(Cl)cc2c1=O (racemic) [Halofuginone] + Cc1nc(NC(=O)N2CCC[C@H]2C(N)=O)sc1-c1ccnc(C(C)(C)C(F)(F)F)c1 [Alpelisib] (partner 2 µM)
In short: as §1

Cell Line	relative viability (Decitabine + Tozasertib; first compound 0.04 µM)	relative viability (Decitabine + Tozasertib; first compound 0.1265 µM)	relative viability (Decitabine + Tozasertib; first compound 0.4 µM)	relative viability (Decitabine + Tozasertib; first compound 1.265 µM)	relative viability (Decitabine + Tozasertib; first compound 4 µM)	relative viability ([1]; first compound 0.001 µM)	relative viability ([1]; first compound 0.003162 µM)	relative viability ([1]; first compound 0.01 µM)	relative viability ([1]; first compound 0.03162 µM)	relative viability ([1]; first compound 0.1 µM)	relative viability ([2]; first compound 0.001 µM)	relative viability ([2]; first compound 0.003162 µM)	relative viability ([2]; first compound 0.01 µM)	relative viability ([2]; first compound 0.03162 µM)	relative viability ([2]; first compound 0.1 µM)	relative viability (Halofuginone + Alpelisib; first compound 0.001 µM)	relative viability (Halofuginone + Alpelisib; first compound 0.003162 µM)	relative viability (Halofuginone + Alpelisib; first compound 0.01 µM)	relative viability (Halofuginone + Alpelisib; first compound 0.03162 µM)	relative viability (Halofuginone + Alpelisib; first compound 0.1 µM)
COR-L 105	0.378	0.336	0.36	0.365	0.237	0.446	0.492	0.481	0.421	0.383	0.939	0.396	0.733	0.595	0.46	1.31	0.934	0.857	0.831	0.629
LCLC-97TM1	0.167	0.17	0.129	0.11	0.0997	0.241	0.192	0.187	0.185	0.173	0.501	0.476	0.363	0.327	0.212	0.298	0.23	0.305	0.209	0.199
NCI-H520	0.402	0.444	0.386	0.352	0.308	0.572	0.734	0.695	0.45	0.287	1.18	1.05	1.03	0.835	0.346	0.792	0.767	0.911	0.761	0.295
NCI-H1993	0.682	0.591	0.683	0.568	0.553	0.502	0.505	0.597	0.505	0.485	1.04	0.875	1.04	0.874	0.668	0.696	0.677	0.664	0.711	0.57
NCI-H1437	0.358	0.363	0.281	0.201	0.17	0.548	0.553	0.558	0.481	0.387	1.09	1.13	1.06	0.976	0.436	0.996	0.957	0.979	0.673	0.294
LC-2-ad	0.479	0.419	0.299	0.334	0.371	0.897	0.988	0.936	0.917	0.701	0.555	0.469	0.43	0.459	0.101	0.952	0.847	0.861	0.772	0.334
HARA	0.0975	0.0855	0.0556	0.078	0.0747	0.918	1.27	0.639	0.968	0.221	1.14	1.11	1.14	1.12	1.14	1.05	0.817	0.836	0.839	0.743
NCI-H650	0.562	0.468	0.372	0.264	0.245	0.898	1.19	1.09	1.08	0.77						1.23	1.35	1.16	1.08	0.675
NCI-H1975	0.279	0.239	0.132	0.152	0.129	0.448	0.317	0.361	0.298	0.157	1.2	1.08	1.1	0.554	0.205	0.684	0.674	0.719	0.302	0.115
NCI-H522	0.538	0.624	0.376	0.446	0.37	0.734	0.753	0.791	0.777	0.633										
ABC-1	0.211	0.185	0.174	0.195	0.21											1.2	0.936	1	0.947	1.03
NCI-H1563																0.874	0.935	0.851	0.633	0.508
NCI-H1703											1.46	1.04	1.08	0.765	0.194	0.334	0.398	0.239	0.27	0.165
NCI-H661	0.345	0.33	0.341	0.318	0.348	0.624	0.629	0.579	0.515	0.373						0.687	0.65	0.53	0.817	0.68
LCLC-103H	0.485	0.463	0.308	0.369	0.253	0.659	0.682	0.666	0.661	0.658						1.09	1.02	0.915	0.954	0.956
NCI-H1792						0.402	0.469	0.51	0.522	0.18	0.557	0.671	0.783	0.664	0.654	0.795	0.724	0.702	0.662	0.686
NCI-H1648	0.519	0.402	0.321	0.172	0.184	0.46	0.449	0.582	0.495	0.497										
EBC-1											0.535	0.35	0.274	0.244	0.109	0.939	0.779	0.666	0.441	0.181
NCI-H1650	0.247	0.297	0.289	0.169	0.193	0.656	0.696	0.55	0.57	0.216	1.37	1.23	1.18	0.815	0.166					
NCI-H1299											1.1	1.05	1.05	1.02	0.964	1.04	1.09	1.02	1.01	1.04
A549											1.33	1.27	1.02	0.676	0.0879	0.919	0.765	0.685	0.44	0.15
IA-LM											0.864	0.961	0.702	0.572	0.0557	0.829	0.982	0.664	0.606	0.161
